Experimental data as given in US20120316211A1, “Diagnostic Methods for Assessing Risk of Chagas Disease and Heart Failure” (The Board or Regents of the University of Texas System, priority 2011, published 2012).

Key:
T. cruzi [1] = assay: Detection of carbonyl proteins (DNPH, anti-DNP Western blotting) in plasma of T. cruzi infected rats; format: in vivo, Sprague Dawley rats
Procedure: (§1) Animals and parasites. Sprague Dawley rats (4-5-weeks-old, Harlan Labs) were infected with T. cruzi (SylvioX10/4, 50,000 trypomastigotes/rat, intraperitoneal). Rats were given 1.3 mM PBN (beginning day 0, throughout the course of infection) and/or 0.7 mM BZ (beginning day 40 pi, for three weeks) in drinking water. The plasma samples were obtained at acute ([…] days post-infection (dpi)) and chronic (>150 dpi) stages of infection and disease development.
Detection of carbonyl proteins. IPG strips were loaded with protein samples and subjected to 1st-dimension isoelectric focusing, as above. IPG strips were then incubated with 1 ml of 3% SDS and 5 mM 2,4-dinitrophenylhydrazine (DNPH)/10% trifluoroacetic acid for 25 min. […] Membranes were hybridized with rabbit anti-DNP antibody (1:300 dilution, Invitrogen) and HRP-conjugated goat anti-rabbit secondary antibody (1:4000 dilution, Sigma), and signal detected by using an Amersham™ ECL Plus system, according to the manufacturer's protocol (Levine et al., (1990) Methods Enzymol, 186, 464-78; Wen and Garg, (2004) Free Radic Biol Med, 37, 2072-81). Images were visualized, digitized, and signal was quantified by densitometry by using a FluorChem 8800 image analyzer (Alpha Innotech). […]

T. cruzi [2] = assay: 2D-GE plasma proteome profile of T. cruzi infected rats treated with PBN and/or BZ; format: in vivo, Sprague Dawley rats
Procedure: as §1
(§2) Rat plasma collection and removal of high-abundance proteins. Whole blood was collected in K3EDTA vacutainers and kept on ice for 30 min. The samples were centrifuged for 15 min at 3,000 g, and the lipid-containing upper layer was removed. The abundant proteins (e.g., albumin, α1-acid glycoprotein, α1-antitrypsin, α2-5 macroglobulin, apolipoproteins (ApoA-I, ApoA-II), fibrinogen, haptoglobin, immunoglobulins (IgA, IgG, and IgM), and transferrin) in plasma were removed using ProteomeLab IgY-12 LC 10 affinity spin columns (Beckman Coulter). The plasma samples depleted of abundant proteins were then concentrated by using Amicon® ultra centrifugal filters (3 kDa cut-off, from Millipore) and desalted by PD-10 desalting columns (GE Healthcare). Protein content was determined by using the Bradford assay (Bio-Rad).
(§3) Two-dimensional gel electrophoresis. The 11-cm immobilized pH gradient (IPG) strips (pH: 3-10 or 5-8, Bio-Rad) were rehydrated at 50 V for 12 h with 250-μl rehydration buffer (1 M thiourea, 8 M urea, 2% CHAPS, 1% dithiothreitol, and 0.2% ampholytes) containing 200-μg protein samples and 0.002% of bromophenol blue. Isoelectric focusing was performed at 500 V for 1 h, 1000 V for 1 h, 8000 V for 2 h, and then at 8000 V for a total of 50,000 Vh. The IPG strips were suspended in equilibration buffer (50 mM Tris-HCI, pH 6.8, 6 M urea, 20% glycerol) and sequentially incubated for 15 min each in presence of 2% DTT/2% SDS (reducing conditions) and 2.5% iodoacetamide/2% SDS (alkylating conditions). Equilibrated IPG strips were subjected to second-dimension electrophoresis by using 8-10% linear gradient precast Tris-HCI gels (BioRad) on a PROTEAN plus Dodeca Cell System at 75 V for 1 h and then at 120 V until the dye front reached the bottom of the gel. Gels were fixed in 10% methanol/7% acetic acid, stained with SYPRO Ruby (BioRad), destained in 10% ethanol/7% acetic acid, and imaged by using a high-resolution ProXPRESS Proteomic Imaging System (Perkin Elmer).
(§4) Image analysis. In total, 28 SYPRO Ruby-stained 2D gels (n=4/group) were digitalized on a ProXPRESS Proteomic Imaging System (Perkin Elmer), and the images were analyzed on Progenesis SameSpots™ software 2.0 (NonLinear Dynamics). Normalized spot volumes, i.e., the volume of each spot over the volume of all spots in the gel, were used for comparison of the different groups, and candidates were identified as protein spots that changed at least 2-fold versus their specific control. Statistical significance was assessed by a two-tailed Student's t-test and analysis of variance test (ANOVA), and p values of <0.05 were considered significant for comparison between control and experimental data.
(§5) Sprague Dawley rats were infected with T. cruzi and treated with phenyl-α-tert-butyl nitrone (PBN, antioxidant) with or without benznidazole (BZ, anti-parasite drug). Plasma samples were collected at day 25 (acute stage) and 150 (chronic stage) post-infection, and depleted of high-abundance proteins to enrich detection of low-abundance proteins by 2D-gel electrophoresis. Gel images of plasma samples from normal rats (RN), rats that were acutely infected (RA) and treated with PBN (RAP), and chronically infected rats (RC) that were treated with PBN (RCP), BZ (RCB), or PBN and BZ (RCPB) were analyzed on Progenesis SameSpotst™ software and normalized spot volumes were used for comparison of different groups.

[3] = as above; format: in vivo, Sprague Dawley rats; conditions: chronically infected rats (RCP, RCB, RCPB), depleted plasma
Procedure: as §1, §2, §3, §4, §5

Trypanosoma cruzi = conditions: cited from earlier work
[4] = chronically infected rats (RCP, RCB, RCPB), depleted plasma

## O=C(Cn1ccnc1[N+](=O)[O-])NCc1ccccc1 [BZ, Benznidazole]
T. cruzi [1]; chronic chagasic plasma
  protein carbonylation: not effective in preventing protein carbonylation
T. cruzi [1]; chronically infected rats (RCP, RCB, RCPB), plasma
  carbonylated protein spots: 31
T. cruzi [2]; chronic chagasic plasma
  number of proteins stimulated in a treatment-specific manner: 2
T. cruzi [2]; chronic chagasic plasma, 22 of the 61 shared with BZ-treated rats
  number of proteins with altered expression: 22
T. cruzi [2]; chronically infected rats
  decline in the plasma proteome profile: 30.1%
T. cruzi [2]; [4]
  Average Normalized Density × 100,000, spot 12, 180 KRT1: 9.47
  Average Normalized Density × 100,000, spot 34 TTC37: 0.37
  Average Normalized Density × 100,000, spot 37, 593 SRPRB: 3.21
  Average Normalized Density × 100,000, spot 49, 673 IGH-1: 3.98
  Average Normalized Density × 100,000, spot 52, 54, 302 TF: 0.60
  Average Normalized Density × 100,000, spot 53, 225 SroTP: 1.72
  Average Normalized Density × 100,000, spot 72 IDH3A: 83.09
  Average Normalized Density × 100,000, spot 73, 705, 787 ALB: 216.9
  Average Normalized Density × 100,000, spot 77 MUG1: 107.7
  Average Normalized Density × 100,000, spot 88 IGHG-: 4.75
  Average Normalized Density × 100,000, spot 94 FGB: 0.55
  Average Normalized Density × 100,000, spot 115, 123 SERPINAL1: 8.36
  Average Normalized Density × 100,000, spot 149 PUS1: 1.16
  Average Normalized Density × 100,000, spot 153 MYL2: 2.37
  Average Normalized Density × 100,000, spot 177 AIM: 2.77
  Average Normalized Density × 100,000, spot 181 SERPINA3L: 7.53
  Average Normalized Density × 100,000, spot 184, 257, 328 CFH: 6.15
  Average Normalized Density × 100,000, spot 207, 555 CCHL1A1: 11.32
  Average Normalized Density × 100,000, spot 215 GPT: 3.23
  Average Normalized Density × 100,000, spot 266 CEP350: 1.43
  Average Normalized Density × 100,000, spot 299 UMPS: 1.17
  Average Normalized Density × 100,000, spot 315 ITIH4: 5.19
  Average Normalized Density × 100,000, spot 334 ZNF689: 1.05
  Average Normalized Density × 100,000, spot 341 Nmag 2782: 1.44
  Average Normalized Density × 100,000, spot 355, 359 PLG: 3.29
  Average Normalized Density × 100,000, spot 382, 385, 378, 572, 578, 595 CFB: 23.45
  Average Normalized Density × 100,000, spot 389 GSN: 44.17
  Average Normalized Density × 100,000, spot 430 SCD2: 13.65
  Average Normalized Density × 100,000, spot 434, 678 COG1: 43.20
  Average Normalized Density × 100,000, spot 439 C4BPA: 1.36
  Average Normalized Density × 100,000, spot 452 AFM: 59.65
  Average Normalized Density × 100,000, spot 464 IGH-6: 4.66
  Average Normalized Density × 100,000, spot 479 IGHM: 8.65
  Average Normalized Density × 100,000, spot 493 ZFP637: 17.41
  Average Normalized Density × 100,000, spot 515 CESIC/ES2: 24.22
  Average Normalized Density × 100,000, spot 524 ERCC4: 68.54
  Average Normalized Density × 100,000, spot 551, 587, 908 C3: 32.88
  Average Normalized Density × 100,000, spot 559 HPX: 17.91
  Average Normalized Density × 100,000, spot 571 GC: 3.75
  Average Normalized Density × 100,000, spot 576, 620 Act-248: 2.38
  Average Normalized Density × 100,000, spot 586, 614 SERPINC1: 132.20
  Average Normalized Density × 100,000, spot 592 DNASE1L1: 11.70
  Average Normalized Density × 100,000, spot 604 APOH: 67.12
  Average Normalized Density × 100,000, spot 606 GC: 11.27
  Average Normalized Density × 100,000, spot 627 MAPI: 44.92
  Average Normalized Density × 100,000, spot 638 LOC501738: 4.69
  Average Normalized Density × 100,000, spot 649 SYNE2: 26.48
  Average Normalized Density × 100,000, spot 651 DSTN: 37.12
  Average Normalized Density × 100,000, spot 655 DLGAP2: 151.30
  Average Normalized Density × 100,000, spot 672 SERPINF: 23.29
  Average Normalized Density × 100,000, spot 676 rCG33447: 24.67
  Average Normalized Density × 100,000, spot 691 APOA4: 65.41
  Average Normalized Density × 100,000, spot 715 SERPINA1: 30.96
  Average Normalized Density × 100,000, spot 724 ALB: 2.19
  Average Normalized Density × 100,000, spot 728 SYMPK: 2.21
  Average Normalized Density × 100,000, spot 733 DECR2: 1.67
  Average Normalized Density × 100,000, spot 740 PRPH: 4.02
  Average Normalized Density × 100,000, spot 745 PFKFB1: 2.30
  Average Normalized Density × 100,000, spot 749 MY05B: 2.46
  Average Normalized Density × 100,000, spot 766 SCG2: 3.79
  Average Normalized Density × 100,000, spot 779, 909 VIM: 3.08
  Average Normalized Density × 100,000, spot 796 Hypothetical p: 5.11
  Average Normalized Density × 100,000, spot 814 RBM15B: 3.61
  Average Normalized Density × 100,000, spot 817 BRPF1: 25.15
  Average Normalized Density × 100,000, spot 820, 1081 BFAR: 13.38
  Average Normalized Density × 100,000, spot 827 GNAT: 10.78
  Average Normalized Density × 100,000, spot 832 PSMB: 3.47
  Average Normalized Density × 100,000, spot 860 KRT10: 2.64
  Average Normalized Density × 100,000, spot 867 RAI14: 2.41
  Average Normalized Density × 100,000, spot 881 CHD4: 28.89
  Average Normalized Density × 100,000, spot 897 MY05A: 11.65
  Average Normalized Density × 100,000, spot 900 rCG25416: 7.06
  Average Normalized Density × 100,000, spot 906 APOE: 74.42
  Average Normalized Density × 100,000, spot 966 CMRF-35-like molecule-7: 49.99
  Average Normalized Density × 100,000, spot 979 rCG25357: 31.72
  Average Normalized Density × 100,000, spot 992 APOA1: 38.11
  protein spots observed (2D-GE): 2486
T. cruzi [2]; share of differentially expressed protein spots, FIG. 7B
  differentially expressed proteins identified in chagasic plasma of treated rats: 17%
[3]
  Average Normalized Density × 100,000, spot 106 CDK5RAP2: 2.21
Trypanosoma cruzi; acutely infected individuals
  controlling parasitemia: effective
Trypanosoma cruzi; chronically infected patients
  efficacy in arresting or reversing disease progression: not clearly established
